One data set concerns rhodopsin GPCR. Kind of data set: Translocation of ED-tagged rhodopsin GPCR by complementation (model of retinitis). The class given is cell-based. From the text:
(§1) In a model of retinitis, the rhodopsin GPCR was tagged with an ED, and its translocation was studied in response to addition of 9-cis retinol. […] Also, AVPR2 (Arginine vasopressin receptor 2), a GPCR for which antagonists are used therapeutically, was studied with SR49059, a small molecule vasopressin V1a receptor antagonist. […] More than 200 mutations in the AVPR2 gene have been identified in people with nephrogenic diabetes insipidus. Most of these mutations cause the vasopressin V2 receptor protein to be misfolded into an incorrect 3-dimensional shape. Thus the present assay finds particular applicability in identifying compounds that bind to the AVPR2 gene product in the case of a misfolding mutation which occurs in humans.

A further data set relates to ADRB2 W158A. Kind of data set: Arrestin activity assay. To be noted: compound 10 μM; signal of test well divided by signal of buffer-only control wells. The format is cell-based. On the procedure:
(§2) The cells were lysed and the complemented activity was measured using a chemiluminescent b-galactosidase substrate. The values of each well containing a test compound was divided by the signal obtained from the control wells that received only buffer.

A further data set concerns the target T1, ADRB2 W158A mutant (Homo sapiens, UniProt P07550, W158A).
T1 construct: expressed in transfected cells
The data set is described as follows: Trafficking assay: β-galactosidase enzyme fragment complementation, ADRB2 W158A-ProLink with endosome-localized EA. The format is cell-based. The settings on record: compound 10 μM; signal of test well divided by signal of buffer-only control wells.
Text: The ADRB2 is a G-protein coupled receptor containing seven transmembrane regions. It was been shown that mutation of W158 to alanine can cause retention of the protein in the endoplasmic reticulum. Contacting the receptor with small molecules that bind to ADRB2 results in enhanced movement of the protein to the plasma membrane and endosomal compartments.
The first fusion protein used comprises the target peptide (ADRB2W158A-PK) and the first fragment of complementation assay. This construct includes the W158 to alanine mutation. The second fusion protein used comprises endosome localized protein and the second fragment of complementation assay.
as §2

In a further data set the target is ADRB2 (Homo sapiens, UniProt P07550). Kind of data set: cAMP activity assay (Gs ADRB2). The settings on record: compound 10 μM; signal of test well divided by signal of buffer-only control wells. The format is cell-based. On the procedure:
as §2

The target of data set [1] is KCNH2 (hERG) mutant, Kv11.1 potassium ion channel (Homo sapiens, UniProt Q12809). The settings on record: KCNH2 mutant-PK cells, overnight, FIG. 5 curve fit.
Method: A single-point mutation is introduced in KCNH2. The second fusion protein used comprises plasma membrane localized protein and the second fragment of complementation assay. The second fragment of complementation assay was localized to the plasma membrane by fusing it to PH domain of phospholipase C gamma.
In this experiment, cells expressing the KCNH2 mutant fused to the first fragment of complementation assay (ProLink™ peptide) and the plasma membrane localized EA were treated with a variety of compounds that bind to the ion channel.
Binding of ligand leads to stabilization (“rescue”) and transport of the protein to the membrane.—PLC(PH)-EA anchors to the membrane. […] The assay is run overnight.
The target in data set [2] is KCNH2 (hERG) mutant, Kv11.1 potassium ion channel (Homo sapiens, UniProt Q12809, form not given). Kind of data set: in vitro.
The target in data set [3] is T2, AVPR2 (Arginine vasopressin receptor 2) (Homo sapiens, UniProt P30518).
T2 construct: expressed in transfected cells
T2 sequence (P30518 whole entry): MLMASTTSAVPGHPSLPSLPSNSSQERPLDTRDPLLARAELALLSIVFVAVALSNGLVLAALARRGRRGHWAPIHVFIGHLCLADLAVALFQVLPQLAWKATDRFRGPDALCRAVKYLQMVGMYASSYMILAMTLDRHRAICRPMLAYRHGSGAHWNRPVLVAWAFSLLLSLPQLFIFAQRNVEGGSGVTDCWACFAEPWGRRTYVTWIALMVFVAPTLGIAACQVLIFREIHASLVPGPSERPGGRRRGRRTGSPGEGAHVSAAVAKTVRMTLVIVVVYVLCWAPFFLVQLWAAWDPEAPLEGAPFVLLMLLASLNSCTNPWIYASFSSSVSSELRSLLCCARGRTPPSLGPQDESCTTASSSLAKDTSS
Kind of data set: Trafficking of AVPR2 target peptide by complementation. The format is cell-based.
Text: as §1

Where a name gives a salt, the structure may show the parent alone.

The results in this text go back to patent publication US9388449B2, “Monitoring protein trafficking using beta-galactosidase reporter fragment complementation” (DiscoveRx Corporation, priority 2011, dated 2016).

As to `CC1=C(/C=C/C(C)=C\C=C\C(C)=C\CO)C(C)(C)CCC1` [9-cis retinol], the “translocation of ED-tagged rhodopsin in response to compound (result in words)” value in the data set with rhodopsin GPCR is listed as “dose-response curve showed sensitive results”.

In the case of `CC(C)(C)NC[C@H](O)COc1nsnc1N1CCOCC1.O=C(O)/C=C\C(=O)O` [(S)-Timolol maleate], in the data set on ADRB2 W158A, the “Arrestin W158A S/B” value worked out at 0.9.

Turning to `CC(C)(C)NCC(O)COc1cccc2[nH]c(C#N)cc12.CC(C)(C)NCC(O)COc1cccc2[nH]c(C#N)cc12.O=C(O)/C=C/C(=O)O` (stereo not drawn) [(—)-Cyanopindolol hemifumarate], the “Arrestin W158A S/B” value in the data set on ADRB2 W158A is reported as 1.0. At ADRB2 W158A mutant, the “Trafficking 5-EA ADRB2 S/B” value came out at 17.1. Also, the “cAMP Gs ADRB2 S/B” value at ADRB2 amounted to 1.8.

By EC50 is commonly meant the midpoint of the concentration-response curve. A higher EC50 goes with weaker potency. In data set [1], `O=C(CCCN1CCC(O)(c2ccc(Cl)cc2)CC1)c1ccc(F)cc1` [Haloperidol] yielded a BOTTOM of 7500, an HILLSLOPE of 0.5120, an LOGEC50 of −1.815 and a TOP of 537564. Further, the EC50 in data set [2] stood at 15.3 mM.

On to `COc1ccccc1N1CCN(CC(O)COc2cccc3ccccc23)CC1.Cl.Cl` (stereo not drawn) [Naftopidil 2HCl], for which, in the data set with ADRB2 W158A, the “Arrestin W158A S/B” value was 1.0. For the same compound, the “Trafficking 5-EA ADRB2 S/B” value on ADRB2 W158A mutant was 6.8. For the same compound, the “cAMP Gs ADRB2 S/B” value on ADRB2 is recorded as 1.0.

As for `CCC(NC(C)C)C(O)c1ccc(O)c2[nH]c(=O)ccc12` (stereo not drawn) [Procaterol HCl], in the data set with ADRB2 W158A, the “Arrestin W158A S/B” value is on record as 21.3. The “Trafficking 5-EA ADRB2 S/B” value at ADRB2 W158A mutant was determined as 78.2. For the same compound, on ADRB2, the “cAMP Gs ADRB2 S/B” value came to 15.2.

In the case of `CC(C)NCC(O)COc1cccc2ccccc12` (stereo not drawn) [Propanolol HCl], the “Arrestin W158A S/B” value in the data set with ADRB2 W158A was found to be 0.9.

Consider `COc1ccc(S(=O)(=O)N2c3ccc(Cl)cc3[C@](O)(c3ccccc3Cl)[C@@H]2C(=O)N2CCC[C@H]2C(N)=O)cc1OC` [SR49059], for which the “dose response of AVPR2 trafficking to compound (result in words)” value in data set [3] is “dose response curve was obtained”.
